The IC50 is the concentration at which inhibition is half-maximal.

The structures appear in SMILES notation. Structures can show the parent of a compound that is named as a salt. Where a SMILES comes first, the peptide text is derived from it. [ ]: non-standard residue; d: D form. The star is where a group is joined. Sta = CC(C)C[C@H](N)[C@@H](O)CC(=O)O; Isovaleryl = CC(C)CC(=O)*

Data on 16 compounds can be found in patent publication US5229369A, “Aminoalkylaminocarbonyl aminodiol amino acid derivatives as anti-hypertensive agents” (G. D. Searle & Co., priority 1991, dated 1993).

For assay [1], the system named is plasma renin. In words: oral activity in vivo in sodium depleted Marmoset monkeys, plasma renin activity. The arrangement: species or system Common marmosets (Callithrix jacchus). Conditions: 1 h, 3 mg/kg dose. As for the experimental part:
The oral activity of compounds of Formula I was determined in vivo in Marmoset monkeys in accordance with the following procedure: Common marmosets (Callithrix jacchus, Charles River) were placed on a modified high protein low sodium diet (Purina, St. Louis, Mo,) for 1 to 2 weeks. On the day of the test an animal was anesthetized with isoflurane and cannulated in the femoral artery and vein for blood pressure monitoring, intravenous saralasin infusion and blood sampling. After allowing the animal to recover from surgery for 2 hr, saralasin was infused at 1 microgram/min for 15 minutes to confirm that the animal's blood pressure was dependent on angiotensin II levels. The marmoset was allowed to stabilize for 30 min after the saralasin infusion. The test compound was administered orally and blood pressure was monitored for 2 hr. Blood samples were taken in K-EDTA for plasma renin activity before, 30 min, and 1 hr after compound administration.

Assay [2] has as its target T1, human renin (Homo sapiens, UniProt P00797).
T1 construct: purchased National Institute for Biological Standards, London
T1 sequence (P00797 67-406): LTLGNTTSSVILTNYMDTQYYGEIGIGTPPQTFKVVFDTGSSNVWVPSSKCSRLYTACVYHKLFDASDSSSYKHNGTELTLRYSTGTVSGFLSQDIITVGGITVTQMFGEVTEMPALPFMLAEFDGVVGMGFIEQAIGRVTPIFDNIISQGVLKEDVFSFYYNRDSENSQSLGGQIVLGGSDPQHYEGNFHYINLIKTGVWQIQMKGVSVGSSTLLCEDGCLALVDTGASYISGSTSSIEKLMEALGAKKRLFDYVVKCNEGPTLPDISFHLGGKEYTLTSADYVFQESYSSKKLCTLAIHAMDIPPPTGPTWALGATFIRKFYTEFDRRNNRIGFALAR
The assay can be described thus: human renin inhibition test in vitro (angiotensin I by radioimmunoassay). Conditions: human plasma, pH 7.4, 37° C., two hours. The format is biochemical. As for the experimental part: Compounds of Formula I were evaluated as inhibitors of human renin in an in vitro assay, as follows: This human renin inhibition test has been previously described in detail [Papaioannou et al., Clinical and Experimental Hypertension, A7(9), 1243-1257 (1985)]. Human renin was obtained from the National Institute for Biological Standards, London. An incubation mixture was prepared containing in a total volume of 0.25 mL 100 mM Tris-acetate buffer at pH 7.4, 25×10^-6 Goldblatt units of renin, 0.05 mL of plasma from human volunteers taking oral contraceptives, 6.0 mM sodium EDTA, 2.4 mM phenylmethyl sulfonyl fluoride, 1.5 mM 8-hydroxyquinoline, 0.4 mg/mL BSA, and 0.024 mg/mL neomycin sulfate. This mixture was incubated for two hours at 37° C. in the presence or absence of renin inhibitors. The produced angiotensin I was determined by radioimmunoassay (New England Nuclear kit). Test compounds to be assayed were solubilized in DMSO and diluted with 100 mM Tris-acetate buffer at pH 7.4 containing 0.5% bovine serum albumin (BSA) to the appropriate concentration. The final concentration of organic solvent in the reaction mixture was less than 1%. Control incubations at 37° C. were used to correct for effects of organic solvent on renin activity.

For assay [3], the system named is aspartyl proteases such as pepsin, cathepsin D and renin. As to conditions: Umezawa et al, J. Antibiot. (Tokyo), 23, 259-262 (1970); cited from earlier work.
For assay [4], the system named is hog renin. Conditions: after injection of hog renin into nephrectomized rats; Gross et al, Science, 175, 656 (1971); cited from earlier work.

Turning to `CC(C)C[C@H](O)[C@H](O)[C@H](CC1CCCCC1)NC(=O)[C@H](Cc1c[nH]cn1)NC(=O)[C@H](Cc1ccccc1)OC(=O)N(C)CCN(C)C` [Example 8, O-{N-[2-(N,N-dimethylamino)ethyl]-N-methylaminocarbonyl}-3-L-phenyllactyl-L-histidineamide of (2S,3R,4S)-2-amino-1-cyclohexyl-3,4-dihydroxy-6-methylheptane], the “% Reduction of Plasma Renin Activity” value in assay [1] amounted to 100%. This compound also came in with an IC50 in assay [2] of 1 nM.

As for `CNCCN(C)C(=O)O[C@@H](Cc1ccccc1)C(=O)N[C@@H](Cc1c[nH]cn1)C(=O)N[C@@H](CC1CCCCC1)[C@@H](O)[C@@H](O)CC(C)C` [Example 10, O-{N-[2-(N-methylamino)ethyl]-N-methylaminocarbonyl}-3-L-phenyllactyl-L-histidineamide of (2S,3R,4S)-2-amino-1-cyclohexyl-3,4-dihydroxy-6-methylheptane], the “% Reduction of Plasma Renin Activity” value in assay [1] is given as 100%. For the same compound, half-maximal inhibition in assay [2] (IC50) was put at 1.5 nM.

As for `CNCCN(C)C(=O)O[C@@H](Cc1ccccc1)C(=O)N[C@@H](CC(C)C)C(=O)N[C@@H](CC1CCCCC1)[C@@H](O)[C@@H](O)CC(C)C` [Example 11], in assay [1], the “% Reduction of Plasma Renin Activity” value is reported as 100%. Moreover, in assay [2], the IC50 was 7.7 nM.

Regarding `CC(C)C[C@H](NC(=O)[C@H](Cc1ccccc1)OC(=O)N(C)CCN(C)C)C(=O)N[C@@H](CC1CCCCC1)[C@@H](O)[C@@H](O)CC(C)C` [Example 15], the “% Reduction of Plasma Renin Activity” value in assay [1] amounted to 79%. Moreover, 5.4 nM corresponded to half-maximal inhibition in assay [2] (IC50).

Regarding `CC(C)C[C@H](O)[C@H](O)[C@H](CC1CCCCC1)NC(=O)[C@H](C)CNC(=O)[C@H](Cc1ccccc1)OC(=O)N(C)CCN(C)C` [Example 18], the IC50 in assay [2] amounted to 170 nM.

`CC(C)C[C@H](O)[C@H](O)[C@H](CC1CCCCC1)NC(=O)[C@H](C)CNC(=O)[C@@H](CC(=O)N(C)CCN(C)C)Cc1ccccc1` [Example 19] yielded an IC50 in assay [2] of 48 nM.

The compound `CC(C)C[C@H](NC(=O)[C@H](Cc1ccccc1)OC(=O)N(CCN(C)C)C(C)C)C(=O)N[C@@H](CC1CCCCC1)[C@@H](O)[C@@H](O)CC(C)C` [Example 20] came in with an IC50 in assay [2] of 19 nM.

As to `CC(C)C[C@H](O)[C@H](O)[C@H](CC1CCCCC1)NC(=O)[C@H](C)CNC(=O)[C@H](CCc1ccccc1)CC(=O)N(C)CCCCN(C)C(=O)OC(C)(C)C` [Example 21], 1350 nM corresponded to half-maximal inhibition in assay [2] (IC50).

`CNCCCCN(C)C(=O)C[C@@H](CCc1ccccc1)C(=O)NC[C@@H](C)C(=O)N[C@@H](CC1CCCCC1)[C@@H](O)[C@@H](O)CC(C)C` [Example 22, 3-{N-[4-(N-methylamino)butyl]-N-methyl-aminocarbonyl}-2-R-phenethyl-propionyl-α-(R)-methyl-β-alanineamide of (2S,3R,4S)-2-amino-1-cyclohexyl-3,4-dihydroxy-6-methylheptane]: in assay [2], the IC50 was determined as 67 nM. Compared with the last compound, the IC50 is about 20-fold lower.

Take `CC(C)C[C@H](O)[C@H](O)[C@H](CC1CCCCC1)NC(=O)[C@H](Cc1c[nH]cn1)NC(=O)[C@H](Cc1ccccc1)OC(=O)N(C)CCN(C)C(=O)OC(C)(C)C` [Example 23]: the IC50 in assay [2] was 0.45 nM.

On to `CC(C)C[C@H](O)[C@H](O)[C@H](CC1CCCCC1)NC(=O)[C@H](C)CNC(=O)[C@H](CCc1ccccc1)OC(=O)N(C)CCN(C)C` [Example 24], for which, in assay [2], the IC50 is 230 nM.

As for `CC(C)C[C@H](O)[C@H](O)[C@H](CC1CCCCC1)NC(=O)[C@H](C)CNC(=O)[C@H](CCc1ccccc1)CC(=O)N(C)CCN(C)C(=O)OC(C)(C)C` [Example 25], in assay [2], half-maximal inhibition (IC50) was put at 10 nM. Against the preceding compound, the IC50 is about 23-fold lower.

`CC(C)C[C@H](O)[C@H](O)[C@H](CC1CCCCC1)NC(=O)[C@H](C)CNC(=O)[C@H](Cc1ccccc1)OC(=O)N(C)CCN(C)C(=O)OC(C)(C)C` [Example 26] registered an IC50 in assay [2] of 8.3 nM.

Turning to `CNCCN(C)C(=O)O[C@@H](Cc1ccccc1)C(=O)NC[C@@H](C)C(=O)N[C@@H](CC1CCCCC1)[C@@H](O)[C@@H](O)CC(C)C` [Example 27], the IC50 in assay [2] is 100 nM. This IC50 lies about 12-fold higher than the previous one.

For `CNCCN(C)C(=O)C[C@@H](CCc1ccccc1)C(=O)NC[C@@H](C)C(=O)N[C@@H](CC1CCCCC1)[C@@H](O)[C@@H](O)CC(C)C` [Example 28, trifluoroacetate salt], the IC50 in assay [2] worked out at 96 nM.

As to `CC(C)CC(=O)N[C@H](C(=O)N[C@H](C(=O)N[C@@H](CC(C)C)[C@@H](O)CC(=O)N[C@@H](C)C(=O)N[C@@H](CC(C)C)[C@@H](O)CC(=O)O)C(C)C)C(C)C` [pepstatin] (Isovaleryl-VV[Sta]A[Sta]-OH), in assay [3], the “inhibition of aspartyl proteases” value is “inhibitor of aspartyl proteases such as pepsin, cathepsin D and renin”. In addition, the “blood pressure in vivo” value in assay [4] was “reduce blood pressure in vivo”.
